Patent US5506271A, “Method of treating papilloma virus infection using hypericin” (New York University, priority 1993, dated 1996)
Entries after “also recorded” stand apart in the source; their conditions may differ. Like-named read-outs stand apart in the source and are kept apart here.

Tests used:
Friend virus [1] = assay: Inactivation of Friend virus by hypericin, Rose Bengal and combinations, splenomegaly (FIG. 9); assay type: in vivo, BALB/C mice; conditions: agents at 2-5 mg/ml, 1 hour on ice, virus 1:2000, spleen weight day 14
Method: FIG. 9 is a graph showing the inactivation of Friend virus by Hypericin, Rose Bengal and combinations thereof. Friend virus was diluted 1:2000 in PBS and incubated with no hypericin or concentrations of hypericin of 1, 2, or 5 mg/ml alone, or in combination with Rose Bengal (RB) at concentrations of 2 and 5 mg/ml for 1 hour on ice. The treated virus preparations were injected into BALB/C mice. On day 14, 1 mouse from each group was sacrificed and analyzed for spleen weight.
FIGS. 9 and 10 show the results of a study in which Friend virus was treated with hypericin, Rose Bengal or combinations of hypericin and Rose Bengal at different concentrations and ratios. The virus treated in this manner was injected into BALB/C mice. […] Lack of, or suppression of, splenomegaly serves as an index of the degrees of virus inactivation. […] This proves that virus inactivation by both agents, alone and in combination, was effective.

Friend virus [2] = assay: Protective effect of virus preparations inactivated with hypericin, Rose Bengal or combinations against live Friend virus challenge (FIG. 10); assay type: in vivo, BALB/C mice; conditions: challenge day 21, spleens weighed after 15 days
Text: FIG. 10 is a graph showing the protective effect of the inactivated virus preparations described in FIG. 9. On day 21 after administration of the treated virus preparation, all animals were challenged with live Friend virus. Also included were control groups of mice injected with live Friend virus, and mice injected with PBS only. After 15 days, all mice were sacrificed and their spleens weighed as a measure of protection.
In this experiment, inhibition of splenomegaly served as the measure of protection resulting from immunogenicity of the virus preparations.

murine RadLV particles = assay: Inactivation of RadLV particles by hypericin with Rose Bengal (particle-derived reverse transcriptase); assay type: biochemical; conditions: Rose Bengal 1-2 μg/ml, hypericin 0.001-1 μg/ml; FIG. 4
Method: Assays for virus particle-derived reverse transcriptase were performed according to Stephenson, J. R. et al., Virology 48:749-756 (1972)).
Hypericin is a photodynamic agent which, in the presence of light, produces excited oxygen species such as singlet oxygen and superoxide radicals. These excited oxygen species play a role in the antiviral and antiretroviral activity of hypericin and hypericin analogs. While this property of producing excited oxygen species may account for inactivation of the virus or retrovirus particle, it is not sufficient to explain the enhanced immunogenicity of the inactivated virus. Support for this notion comes from experimental findings by the present inventors using another photodynamic agent, Rose Bengal. Rose Bengal also produces excited oxygen species, is also capable of inactivating retroviral particles and interacts synergistically with hypericin in inactivating the virus.

[3] = Solubility of hypericin ion pair and salt forms in organic solvents; assay type: physicochemical
Text: As indicated above, hypericin has hydroxy groups at R^1 and R^2 in its free acid form. Upon reaction with a base, the free acid form of hypericin ionizes at R^1 and R^2. Under alkaline conditions below about pH 11.5, only one of these hydroxy groups ionize to form a salt with the base. At more alkaline conditions, both hydroxy groups ionize to form a salt with two basic cations. The salt with two basic cations has substantially different physical properties as that with one cation. […] To differentiate these two forms of hypericin, the former, which behaves as an organic compound, will be referred to herein as an ion pair and the latter as a salt.

HIV [4] = assay: Effect of light on hypericin reduction of HIV infectivity titer for H9 target cells, limiting dilution assay; assay type: cell-based; conditions: ambient light; FIG. 5
Text: FIG. 5 is a graph showing the effect of ambient light treatment on hypericin's ability to reduce the infectivity titer of HIV for H9 target cells, measured in a limiting dilution assay.

HIV [5] = assay: HIV infectivity monitored by HIV-induced destruction of CEM ×174 cultures infected with dilutions of hypericin-treated virus; assay type: cell-based; conditions: for log reduction at 10 µg/mL: hypericin 10 μg/ml
Method: Hypericin can effectively inactivate retroviral particles rendering them non infectious.
In these experiments infectivity was monitored by HIVinduced destruction
of CEM ×174 after these cultures were infected with increasing
dilutions of hypericintreated virus. For Experiment 2, virus was incubate
(§1) overnight with hypericin at 4° C.. RT: reverse transcriptase

retroviral particles = assay: Detergent-mediated (Triton X-100) release of reverse transcriptase from hypericin-treated viral particles; assay type: biochemical
Method: (§2) Thus it is much more difficult to measure reverse transcriptase from virus treated with hypericin prior to exposure to detergent than with virus first disrupted with detergent and then incubated with hypericin.
The effects on virion-encapsulated enzyme are presumed to be due to the failure of the capsids, within which the […] is sequestered, to be disrupted after hypericin treatment.

[6] = test system: HIV reverse transcriptase activity; assay: Reverse transcriptase activity of hypericin-treated HIV; assay type: biochemical; conditions: Expt 1
Method: Hypericin Reduces Infectivity and Reverse Transcriptase
Activity of HIV Infecting CEM × 14 Cells
as §1

[7] = test system: purified reverse transcriptase enzyme; assay: Enzymatic activity of purified reverse transcriptase enzyme; assay type: biochemical; conditions: assay conditions used, FIG. 2
Method: as §2

[8] = test system: Radiation leukemia virus (RadLV); assay: Guanidinium hydrochloride extraction of RNA from hypericin-treated virions; set-up: species or system murine; conditions: virions treated with hypericin prior to GuHCl disruption; FIG. 3
Text: The present inventors have further discovered that hypericin-treated retroviral particles become more resistant to dissociation by harsh denaturing reagents such as guanidinium hydrochloride (GuHCl). These denaturing agents effectively disrupt hydrogen bonding, thereby unfolding tertiary and quaternary structures of proteins and causing dissociation of bonded proteins and the collapse of biological structures.

[9] = test system: Friend leukemia virus (FLV); assay: Inactivation of Friend leukemia virus by extracorporeal hypericin treatment, splenomegaly in mice; assay type: in vivo, BALB/c mice
Method: FIG. 6 is a graph showing the inactivation of Friend leukemia virus (FLV) extracorporeal treatment with hypericin. Virus infectivity is measured as splenomegaly. Uninfected mice generally have spleen weights in the range of 0.08 to 0.2 grams.
Synthetic hypericin prepared from emodin was solubilized in 0.5% aqueous benzyl alcohol and administered to a concentrated stock of Friend virus estimated to contain greater than 10^4 virus focus forming units at final hypericin concentrations of 1 μg/ml and 5 μg/ml. The mixture was incubated on ice for one hour. A control preparation was incubated in parallel in the absence of the compound. Additional experimental groups were exposed to light from a 200 watt visible light halogen source in the presence of equivalent hypericin concentrations for 1×30 seconds and 2×30 seconds respectively.
The treated virus was diluted in phosphate buffered saline (PBS) to final dilutions of 1:500 and of 1:2000. The diluted treated and control virus preparations were injected intraperitoneally into BALB/c mice (3 mice per group). A single mouse from each group was sacrificed on day 11 for assessment of spleen size in order to determine the degree of FLV inactivation by hypericin.

Q: Which “suppression of virus-induced splenomegaly (virus inactivation)” value (Friend virus [1]) does the source give for O=C1OC2(c3cc(I)c(O)c(I)c3Oc3c2cc(I)c(O)c3I)c2c(Cl)c(Cl)c(Cl)c(Cl)c21 [Rose Bengal] here?
A: effectively suppressed virus-induced splenomegaly

Q: What about the “protection from live virus challenge (immunogenicity of inactivated virus preparation)” value (from here on “protection from live virus challenge”) (Friend virus [2]) of the same compound?
A: does not cause marked enhancement of immunogenicity

Q: And the “protection from live virus challenge” value (Friend virus [2]; listed as Rose-Bengal)?
A: lower levels of protection

Q: And the “effect of Rose Bengal on hypericin inactivation of retroviral particles” value (murine RadLV particles)?
A: enhances the ability of hypericin; also recorded: enhanced the ability of hypericin to inactivate retroviral particles

Q: For Cc1cc(O)c2c(=O)c3c(O)cc(O)c4c5c(O)cc(O)c6c(=O)c7c(O)cc(C)c8c1c2c(c34)c(c78)c65 [hypericin], which “solubility in organic solvents” value ([3]; above pH 11.5 (salt, two cations)) is on record?
A: substantially insoluble in organic solvents

Q: And the “solubility in organic solvents” value ([3]; below pH 11.5 (ion pair, one cation))?
A: soluble in organic solvents

Q: What about the “effect of light on antiviral activity of hypericin” value (HIV [4]) of the same compound?
A: Light can enhance the antiviral activity

Q: And the log reduction at 10 µg/mL (HIV [5]; Human immunodeficiency virus 1, CEM174, Expt 1, read-out: INHIBITION (Log1 0 Reduction) INFECTIVITY)?
A: 4

Q: What about the log reduction at 25 µg/mL (HIV [5]; Human immunodeficiency virus 1, CEM174, Expt 1, hypericin 25 μg/ml, read-out: INHIBITION (Log1 0 Reduction) INFECTIVITY) of the same compound?
A: 4.75

Q: And the log reduction at 1 µg/mL (HIV [5]; Human immunodeficiency virus 1, CEM174, Expt 2, hypericin 1 μg/ml, virus incubated overnight at 4° C., read-out: INHIBITION (Log1 0 Reduction) INFECTIVITY)?
A: 0

Q: What about the log reduction at 2 µg/mL (HIV [5]; Human immunodeficiency virus 1, CEM174, Expt 2, hypericin 2 μg/ml, virus incubated overnight at 4° C., read-out: INHIBITION (Log1 0 Reduction) INFECTIVITY) of the same compound?
A: 3.75

Q: What about the log reduction at 5 µg/mL (HIV [5]; Human immunodeficiency virus 1, CEM174, Expt 2, hypericin 5 μg/ml, virus incubated overnight at 4° C., read-out: INHIBITION (Log1 0 Reduction) INFECTIVITY) of the same compound?
A: 4.25

Q: What about the log reduction at 10 µg/mL (HIV [5]; Human immunodeficiency virus 1, CEM174, Expt 2, virus incubated overnight at 4° C., read-out: INHIBITION (Log1 0 Reduction) INFECTIVITY) of the same compound?
A: 4.75

Q: And the “HIV infectivity titers diminished” value (HIV [5]; after treatment with hypericin (summary of Table 3))?
A: 3-4 logs

Q: And the “detergent-mediated release of reverse transcriptase activity from viral particles” value (retroviral particles; 0.5-1% Triton X-100, FIG. 1)?
A: prevents detergent-mediated (0.5-1% Triton X-100) release of reverse transcriptase activity

Q: And the “resistance of virion to disruption with non-ionic detergents” value (retroviral particles; 1% aqueous Triton X-100)?
A: more resistant to disruption

Q: And the “INHIBITION (Log1 0 Reduction) RT” value ([6]; hypericin 10 μg/ml)?
A: 0.60 Log1 0 Reduction

Q: And the “INHIBITION (Log1 0 Reduction) RT” value ([6]; hypericin 25 μg/ml)?
A: 1.72 Log1 0 Reduction

Q: And the “suppression of virus-induced splenomegaly (virus inactivation)” value (Friend virus [1])?
A: effectively suppressed virus-induced splenomegaly

Q: What about the “protection from live virus challenge” value (Friend virus [2]) of the same compound?
A: greatest degree of protection

Q: What about the “effect on reverse transcriptase enzymatic activity” value [7] of the same compound?
A: no effect on reverse transcriptase enzymatic activity; also recorded: does not directly affect enzymatic activity of purified reverse transcriptase enzyme

Q: And the “extraction of viral RNA by guanidinium hydrochloride” value [8]?
A: dramatic inhibition of the ability of guanidinium hydrochloride to extract RNA; also recorded: yields of extractable RNA were markedly reduced

Q: And the “effect of increased light exposure on FV inactivation by hypericin” value ([9]; 200 watt visible light halogen source, 1×30 and 2×30 seconds)?
A: did not enhance the ability of hypericin to inactivate FV

Q: What about the “virus-induced splenomegaly after injection of hypericin-treated FLV” value ([9]; hypericin 1 and 5 μg/ml, 1 hour on ice, i.p. BALB/c mice, spleen size day 11, FIG. 6) of the same compound?
A: significantly reduced the ability of the virus to induce splenomegaly; also recorded: absence or presence of minimal splenomegaly
